Laboratory results published in patent publication US20230139171A1 (SITA Information Networking Computing UK Limited, priority 2019, published 2023).

Experiments:
Assay type in all cases: cell-based
human TLR9 = target: T1, human TLR9 (Homo sapiens, UniProt Q9NR96); test: TLR9 inhibition reporter assay (HEK-Blue cells, SEAP reporter, ODN2006 stimulation); settings: HEK-Blue cells overexpressing human TLR9, SEAP reporter, ODN2006 5 nM
T1 construct: host or cells: HEK-Blue cells
T1 sequence (Q9NR96 26-1032): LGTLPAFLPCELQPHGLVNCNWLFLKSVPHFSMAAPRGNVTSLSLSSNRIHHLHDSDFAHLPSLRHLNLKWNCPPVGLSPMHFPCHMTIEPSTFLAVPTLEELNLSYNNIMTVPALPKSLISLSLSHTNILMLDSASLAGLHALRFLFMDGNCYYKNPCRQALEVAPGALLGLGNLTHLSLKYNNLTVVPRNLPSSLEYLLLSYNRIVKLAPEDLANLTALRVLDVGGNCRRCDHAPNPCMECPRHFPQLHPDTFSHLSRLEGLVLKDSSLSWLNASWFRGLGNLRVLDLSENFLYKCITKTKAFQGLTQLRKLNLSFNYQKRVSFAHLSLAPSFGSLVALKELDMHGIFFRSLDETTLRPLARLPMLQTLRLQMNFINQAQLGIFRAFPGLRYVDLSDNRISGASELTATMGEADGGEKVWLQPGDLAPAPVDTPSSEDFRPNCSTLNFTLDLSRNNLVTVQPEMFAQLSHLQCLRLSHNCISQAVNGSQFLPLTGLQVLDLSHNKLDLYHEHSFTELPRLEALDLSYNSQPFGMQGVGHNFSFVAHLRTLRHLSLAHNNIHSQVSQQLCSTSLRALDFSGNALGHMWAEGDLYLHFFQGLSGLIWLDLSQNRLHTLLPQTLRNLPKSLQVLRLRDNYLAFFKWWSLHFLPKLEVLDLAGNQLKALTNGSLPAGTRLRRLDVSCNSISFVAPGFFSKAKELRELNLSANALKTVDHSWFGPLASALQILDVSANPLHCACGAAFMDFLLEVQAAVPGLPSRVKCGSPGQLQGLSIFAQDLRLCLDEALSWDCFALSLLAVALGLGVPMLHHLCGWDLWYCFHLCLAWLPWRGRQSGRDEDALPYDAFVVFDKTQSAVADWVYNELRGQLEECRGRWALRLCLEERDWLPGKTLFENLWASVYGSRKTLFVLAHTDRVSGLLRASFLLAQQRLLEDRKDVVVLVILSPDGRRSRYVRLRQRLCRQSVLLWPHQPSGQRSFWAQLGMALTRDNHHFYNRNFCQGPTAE
In short: (§1)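 Compound treatment: 30 min, RT, 0.05 nM–50 μM final. Agonist: TLR7 gardiquimod 7.5 μM; TLR8 R848 15.9 μM; TLR9 ODN2006 5 nM. Incubation 22 h, 37 °C, 5% CO2. Readout SEAP, HEK-Blue Detection.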

human TLR7 = target: T2, human TLR7 (Homo sapiens, UniProt Q9NYK1); test: TLR7 inhibition reporter assay (HEK-Blue cells, SEAP reporter, gardiquimod stimulation); settings: HEK-Blue cells overexpressing human TLR7, SEAP reporter, gardiquimod 7.5 μM; read-out: TLR7 IC50
T2 construct: host or cells: HEK-Blue cells
T2 sequence (Q9NYK1 27-1049): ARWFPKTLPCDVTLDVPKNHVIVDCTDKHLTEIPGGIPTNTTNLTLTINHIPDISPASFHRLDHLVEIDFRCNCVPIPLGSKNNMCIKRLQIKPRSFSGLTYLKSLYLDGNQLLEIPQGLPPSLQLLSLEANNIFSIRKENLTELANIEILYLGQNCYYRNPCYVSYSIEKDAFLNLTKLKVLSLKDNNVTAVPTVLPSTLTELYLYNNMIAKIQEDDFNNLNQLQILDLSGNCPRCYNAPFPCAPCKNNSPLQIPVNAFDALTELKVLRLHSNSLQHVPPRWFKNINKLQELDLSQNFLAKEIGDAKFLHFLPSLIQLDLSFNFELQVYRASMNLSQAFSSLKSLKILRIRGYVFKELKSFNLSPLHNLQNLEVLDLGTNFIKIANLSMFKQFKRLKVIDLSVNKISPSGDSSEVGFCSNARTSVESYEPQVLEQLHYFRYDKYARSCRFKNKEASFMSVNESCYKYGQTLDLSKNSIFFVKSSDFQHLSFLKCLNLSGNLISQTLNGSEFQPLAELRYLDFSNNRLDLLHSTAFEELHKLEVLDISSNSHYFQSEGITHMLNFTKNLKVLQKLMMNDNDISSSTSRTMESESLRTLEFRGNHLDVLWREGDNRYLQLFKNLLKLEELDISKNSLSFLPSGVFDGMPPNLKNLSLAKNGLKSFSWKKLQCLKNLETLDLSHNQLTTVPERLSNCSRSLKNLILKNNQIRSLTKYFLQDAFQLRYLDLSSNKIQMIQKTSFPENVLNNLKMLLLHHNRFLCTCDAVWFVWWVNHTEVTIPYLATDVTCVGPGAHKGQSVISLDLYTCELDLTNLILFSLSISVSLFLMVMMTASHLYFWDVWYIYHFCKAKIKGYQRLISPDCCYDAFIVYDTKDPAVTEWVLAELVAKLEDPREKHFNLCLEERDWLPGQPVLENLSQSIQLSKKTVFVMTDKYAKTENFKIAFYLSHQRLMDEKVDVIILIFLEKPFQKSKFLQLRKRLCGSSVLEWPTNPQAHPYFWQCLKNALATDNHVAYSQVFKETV
In short: as §1

human TLR8 = target: T3, human TLR8 (Homo sapiens, UniProt Q9NR97); test: TLR8 inhibition reporter assay (HEK-Blue cells, SEAP reporter, R848 stimulation); settings: HEK-Blue cells overexpressing human TLR8, SEAP reporter, R848 15.9 μM; read-out: TLR8 IC50
T3 construct: host or cells: HEK-Blue cells
T3 sequence (Q9NR97 27-1041): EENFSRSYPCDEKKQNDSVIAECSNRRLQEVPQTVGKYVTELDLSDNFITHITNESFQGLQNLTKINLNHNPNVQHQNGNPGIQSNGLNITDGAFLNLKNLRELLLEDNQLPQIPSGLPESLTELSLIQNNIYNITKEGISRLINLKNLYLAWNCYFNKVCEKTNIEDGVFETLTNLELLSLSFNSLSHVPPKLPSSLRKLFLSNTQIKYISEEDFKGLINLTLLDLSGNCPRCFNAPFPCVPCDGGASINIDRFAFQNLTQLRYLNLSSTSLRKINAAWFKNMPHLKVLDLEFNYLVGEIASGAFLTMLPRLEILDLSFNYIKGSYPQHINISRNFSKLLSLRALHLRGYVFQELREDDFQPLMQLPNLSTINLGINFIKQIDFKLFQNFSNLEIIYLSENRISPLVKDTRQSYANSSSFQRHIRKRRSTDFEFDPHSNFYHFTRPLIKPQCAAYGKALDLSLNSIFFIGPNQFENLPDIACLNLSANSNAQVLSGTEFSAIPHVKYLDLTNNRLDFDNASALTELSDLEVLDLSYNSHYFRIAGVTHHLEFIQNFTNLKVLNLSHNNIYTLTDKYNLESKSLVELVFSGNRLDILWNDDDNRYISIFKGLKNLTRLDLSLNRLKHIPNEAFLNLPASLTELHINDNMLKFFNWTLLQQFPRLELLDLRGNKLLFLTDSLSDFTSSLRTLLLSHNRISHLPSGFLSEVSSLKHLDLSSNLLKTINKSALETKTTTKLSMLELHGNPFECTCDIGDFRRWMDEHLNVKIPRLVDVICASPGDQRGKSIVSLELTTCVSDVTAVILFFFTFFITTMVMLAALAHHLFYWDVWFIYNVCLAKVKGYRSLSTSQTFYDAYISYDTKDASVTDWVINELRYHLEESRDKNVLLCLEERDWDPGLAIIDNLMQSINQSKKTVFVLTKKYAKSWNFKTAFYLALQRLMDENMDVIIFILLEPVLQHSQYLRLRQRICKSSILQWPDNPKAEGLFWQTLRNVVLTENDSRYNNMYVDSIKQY
In short: as §1

| IC50 (human TLR9) [nM] | IC50 (human TLR7) [nM] | IC50 (human TLR8) [nM] | SMILES |
| --- | --- | --- | --- |
| 5070 | 0.94 | 0.79 | Cc1c(-c2[nH]c3sc(C4CCN(CC5CC5)CC4)nc3c2C(C)C)cn2ncnc2c1C [Example 53, 2-(1-(cyclopropylmethyl)piperidin-4-yl)-5-(7,8-dimethyl-[1,2,4]triazolo[1,5-a]pyridin-6-yl)-6-isopropyl-4H-pyrrolo[3,2-d]thiazole] |
| 6670 | 1.1 | 3.74 | CCC(CC)CN1CCC(c2nc3c(C(C)C)c(-c4cn5ncnc5c(C)c4C)[nH]c3s2)CC1 [Example 54, 5-(7,8-dimethyl-[1,2,4]triazolo[1,5-a]pyridin-6-yl)-2-(1-(2-ethylbutyl)piperidin-4-yl)-6-isopropyl-4H-pyrrolo[3,2-d]thiazole] |
| 23100 | 4.24 | 1.34 | Cc1c(-c2[nH]c3sc(C4CCN(CC(=O)N(C)C)CC4)nc3c2C(C)C)cn2ncnc2c1C [Example 57, 2-(4-(5-(7,8-dimethyl-[1,2,4]triazolo[1,5-a]pyridin-6-yl)-6-isopropyl-4H-pyrrolo[3,2-d]thiazol-2-yl)piperidin-1-yl)-N,N-dimethylacetamide] |
| 32800 | 3.01 | 1.43 | Cc1c(-c2[nH]c3sc(C4CCN(CC(N)=O)CC4)nc3c2C(C)C)cn2ncnc2c1C [Example 58, 2-(4-(5-(7,8-dimethyl-[1,2,4]triazolo[1,5-a]pyridin-6-yl)-6-isopropyl-4H-pyrrolo[3,2-d]thiazol-2-yl)piperidin-1-yl)acetamide] |
| 5490 | 2.42 | 41.9 | COc1cc(-c2[nH]c3sc(C4CCC(N5CC6(C5)CS(=O)(=O)C6)CC4)nc3c2C(C)C)cn2ncnc12 (stereo not drawn) [Example 97, 6-(4-(6-isopropyl-5-(8-methoxy-[1,2,4]triazolo[1,5-a]pyridin-6-yl)-4H-pyrrolo[3,2-d]thiazol-2-yl)cyclohexyl)-2-thia-6-azaspiro[3.3]heptane 2,2-dioxide] |
| 14300 | 2.25 | 90.9 | COc1cc(-c2[nH]c3sc(C4CCC(NC5(C#N)CC5)CC4)nc3c2C(C)C)cn2ncnc12 (stereo not drawn) [Example 106, 1-((4-(6-isopropyl-5-(8-methoxy-[1,2,4]triazolo[1,5-a]pyridin-6-yl)-4H-pyrrolo[3,2-d]thiazol-2-yl)cyclohexyl)amino)cyclopropane-1-carbonitrile] |
| 15400 | 3.6 | 190 | COc1cc(-c2[nH]c3sc(C4CCC(NC5(C#N)CC5)CC4)nc3c2C(C)C)cn2ncnc12 (stereo not drawn) [Example 107, 1-((4-(6-isopropyl-5-(8-methoxy-[1,2,4]triazolo[1,5-a]pyridin-6-yl)-4H-pyrrolo[3,2-d]thiazol-2-yl)cyclohexyl)amino)cyclopropane-1-carbonitrile] |
| 28600 | 7.72 | 31.5 | COc1cc(-c2[nH]c3sc(C4CCC(N(C)C5COC5)CC4)nc3c2C(C)C)cn2ncnc12 (stereo not drawn) [Example 124, N-(4-(6-isopropyl-5-(8-methoxy-[1,2,4]triazolo[1,5-a]pyridin-6-yl)-4H-pyrrolo[3,2-d]thiazol-2-yl)cyclohexyl)-N-methyloxetan-3-amine] |
| 13200 | 0.98 | 6.83 | COc1cc(-c2[nH]c3sc(C4CCC(NC(=O)CN(C)C)CC4)nc3c2C(C)C)cn2ncnc12 (stereo not drawn) [Example 126, 2-(dimethylamino)-N-(4-(6-isopropyl-5-(8-methoxy-[1,2,4]triazolo[1,5-a]pyridin-6-yl)-4H-pyrrolo[3,2-d]thiazol-2-yl)cyclohexyl)acetamide] |
| > 50000 | 1.99 | 178 | COc1cc(-c2[nH]c3sc(C4CCC(NS(C)(=O)=O)CC4)nc3c2C(C)C)cn2ncnc12 (stereo not drawn) [Example 127, N-(4-(6-isopropyl-5-(8-methoxy-[1,2,4]triazolo[1,5-a]pyridin-6-yl)-4H-pyrrolo[3,2-d]thiazol-2-yl)cyclohexyl)methanesulfonamide] |
| 13400 | 1.21 | 8.29 | CCN(C)CC(=O)N[C@H]1CC[C@H](c2nc3c(C(C)C)c(-c4cc(OC)c5ncnn5c4)[nH]c3s2)CC1 [Example 128, Trans 2-(ethyl(methyl)amino)-N-(4-(6-isopropyl-5-(8-methoxy-[1,2,4]triazolo[1,5-a]pyridin-6-yl)-4H-pyrrolo[3,2-d]thiazol-2-yl)cyclohexyl)acetamide] |
| 14400 | 1.34 | 7.36 | COc1cc(-c2[nH]c3sc(C4CCC(NC(=O)CNCC(C)C)CC4)nc3c2C(C)C)cn2ncnc12 (stereo not drawn) [Example 129, 2-(isobutylamino)-N-(4-(6-isopropyl-5-(8-methoxy-[1,2,4]triazolo[1,5-a]pyridin-6-yl)-4H-pyrrolo[3,2-d]thiazol-2-yl)cyclohexyl)acetamide] |
